Measured values as given in patent US20230172873A1, “Uses and Formulations of Cannabinoids” (priority 2020, published 2023).
Like-named read-outs stand apart in the source and are kept apart here.

Experiments:
IL-6 receptor = molecular target: T1, IL-6 receptor (Homo sapiens, UniProt P08887); conditions: patients with rheumatoid arthritis and systemic juvenile idiopathic arthritis; cited from earlier work
T1 sequence (P08887 20-468): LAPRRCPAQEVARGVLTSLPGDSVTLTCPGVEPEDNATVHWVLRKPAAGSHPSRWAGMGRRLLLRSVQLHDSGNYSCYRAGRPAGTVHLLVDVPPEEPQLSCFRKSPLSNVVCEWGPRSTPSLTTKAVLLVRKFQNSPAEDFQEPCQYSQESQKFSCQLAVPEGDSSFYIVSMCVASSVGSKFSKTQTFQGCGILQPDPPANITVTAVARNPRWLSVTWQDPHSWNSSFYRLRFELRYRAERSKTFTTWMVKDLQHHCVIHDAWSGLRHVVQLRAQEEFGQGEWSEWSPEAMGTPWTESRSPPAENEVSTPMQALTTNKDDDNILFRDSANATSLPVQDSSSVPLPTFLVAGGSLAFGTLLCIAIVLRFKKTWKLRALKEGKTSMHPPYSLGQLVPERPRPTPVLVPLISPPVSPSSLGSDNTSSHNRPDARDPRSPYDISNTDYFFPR

[1] = log P (n-octanol/water partition coefficient); format: physicochemical; conditions: active ingredient of Example 9
Protocol: In fact, cannabinoids are highly lipophilic molecules (log P 6-7) with very low water solubility (2-10 µg / ml). The log P is the decimal logarithm of the n-octanol/water partition coefficient. The partition coefficient can be determined experimentally. Values typically refer to room temperature (25° C.). The partition coefficient can also be roughly calculated from the molecular structure.

[2] = Systemic exposure after i.p. and oral application of CBD in mice; format: in vivo; conditions: 20 mg/kg; assuming dose-proportional plasma concentrations
Protocol: A comparative investigation for systemic exposure after i.p. and oral application of CBD in mice and rats has shown that 120 mg/kg as a single dose leads to a maximum plasma concentration of 14,000 ng/ml in mice (S. Deiana et al. (2012). Plasma and brain pharmacokinetic profile of cannabidiol (CBD), cannabidivarine (CBDV), Delta(9)-tetrahydrocannabivarin (THCV) and cannabigerol (CBG) in rats and mice following oral and intraperitoneal administration and CBD action on obsessive-compulsive behaviour. Psychopharmacology (Berl) 219(3): 859-73).

IL-6 secretion [3] = conditions: conversion of the effective concentration
[4] = mice; 120 mg/kg single dose (Deiana et al. 2012); cited from earlier work
IL-6 secretion [5] = conditions: cellular models, majority of cases (Chen et al. 2016); cited from earlier work
[6] = test system: LPS-induced acute lung injury; conditions: cited from earlier work
[7] = test system: LPS-induced acute lung injury; conditions: mice, 20 mg/kg, cited from earlier work
human mononuclear cells = conditions: nanomolar or micromolar concentrations; cited from earlier work
human neutrophils = conditions: McHugh et al. 2008; cited from earlier work
CD83 = conditions: dendritic cells derived from individuals with HIV infection; cited from earlier work
microglial cells = conditions: 1-16 µmol/l (Wu et al. 2012); cited from earlier work
[8] = test system: chemically induced acute hepatitis; conditions: mice, cited from earlier work
[9] = test system: activated memory T cell line; conditions: 1-5 µmol/l (Kozela et al. 2013), cited from earlier work
[10] = test system: ischemia-reperfusion-induced kidney injury; conditions: mice, cited from earlier work
inflammatory processes = conditions: cited from earlier work
NK, NKT, T and B cells = conditions: healthy rats, cited from earlier work
[11] = mice, 0.3-80 mg/kg i.p. 60 minutes before LPS (Ribeiro et al. 2012)

tocilizumab: a humanized anti-IL-6 receptor antibody
efficacy (IL-6 receptor): verified its efficacy
safety (IL-6 receptor): tolerable safety

C=C(C)[C@@H]1CCC(C)=C[C@H]1c1c(O)cc(CCCCC)cc1O [CBD, 2-[(1R,6R)-3-methyl-6-(1-methylethenyl)-2-cyclohexen-1-yl]-5-pentyl-1,3-benzenediol]
logP [1]: ~6.1
target peak exposure [2]: 2,300 ng/ml
resulting concentration (5 µM converted with molecular weight 314.5 g/mol) (IL-6 secretion [3]): 1,570 ng/ml
maximum plasma concentration [4]: 14,000 ng/ml
effective concentration for suppressive effect on IL-6 secretion (IL-6 secretion [5]): ~5 µM
number of leukocytes including macrophages and neutrophils in the bronchoalveolar lavage fluid ([6]; mice, 20 mg/kg, after LPS-induced lung inflammation): decreases
Total leukocytes migration [6, 11]: significantly decreased
myeloperoxidase activity [6, 11]: significantly decreased
pro-inflammatory cytokine production including TNF-a and IL-6 [6, 11]: significantly decreased
vascular permeability [6, 11]: significantly decreased
dose at which effects reached a nearly maximum extent ([6]; prophylactic application, i.p.): 20 mg/kg
mechanical lung function ([7]; 6 h after LPS (Ribeiro et al. 2014)): improved
leukocyte migration (neutrophil, macrophages and lymphocytes) into the lungs ([7]; 6 h after LPS): decreased
myeloperoxidase activity in the lung tissue ([7]; 6 h after LPS): decreased
production of proinflammatory cytokines/chemokines ([7]; 6 h after LPS): reduced
vascular permeability ([7]; 6 h after LPS): reduced
release of pro-inflammatory cytokines (human mononuclear cells): suppressed
migration of human neutrophils (human neutrophils): inhibits
CD83 dendritic cell activation marker (CD83): suppresses
apoptosis in microglial cells (microglial cells): induces apoptosis
expression of MDSCs ([8]; 25 mg/kg (Hegde et al. 2011)): induces the expression of MDSCs
pro-inflammatory cytokines such as IL-2, TNF-α and IL-6 ([8]; 25 mg/kg): reduction
IL-6 production and secretion [9]: decreased
production of IL-10 [9]: increased
autoantigen-specific Th17 cell phenotype (Th17 signature cytokine IL-17) ([9]; dose-dependently): reduces
kidney protection ([10]; 10 mg/kg after induced kidney injury (Baban et al. 2018)): renoprotective
decreased Treg17 and increased Th17 levels ([10]; 10 mg/kg after induced kidney injury): reversed these effects
circulating IL-6 (inflammatory processes; animal models including diabetes, asthma, pancreatitis and hepatitis (Nichols and Kaplan 2020)): suppress
regulatory T cells (Tregs) (inflammatory processes; several disease models (Nichols and Kaplan 2020)): induce regulatory T cells (Tregs)
numbers of natural killer (NK) cells and natural killer T (NKT) cells (NK, NKT, T and B cells; 2.5 mg/kg per day): increased
numbers of natural killer (NK) cells and natural killer T (NKT) cells (NK, NKT, T and B cells; 5 mg/kg per day): not affected
number of B cells (NK, NKT, T and B cells; daily 5 mg/kg): significantly reduced
number of T cells including T helper cells and cytotoxic T cells (NK, NKT, T and B cells; daily 5 mg/kg): significantly reduced
